These compounds were tested against T1, human Edg-1 receptor (Homo sapiens, UniProt P21453) (assay: GTP-γ-S assay using human Edg-1 receptors (SPA, CHO Flp-In cell membrane preparation)). Conditions: test compound at 10 μM; high control 10 μM S1P regarded as 100% activation; background-corrected; triplicate; read-out: % Activation (Edg-1 receptor activation in percent of the activation by 10 μM S1P).
T1 construct: FLAG (N); expressed in transfected cells; membrane preparation
T1 sequence (P21453 whole entry): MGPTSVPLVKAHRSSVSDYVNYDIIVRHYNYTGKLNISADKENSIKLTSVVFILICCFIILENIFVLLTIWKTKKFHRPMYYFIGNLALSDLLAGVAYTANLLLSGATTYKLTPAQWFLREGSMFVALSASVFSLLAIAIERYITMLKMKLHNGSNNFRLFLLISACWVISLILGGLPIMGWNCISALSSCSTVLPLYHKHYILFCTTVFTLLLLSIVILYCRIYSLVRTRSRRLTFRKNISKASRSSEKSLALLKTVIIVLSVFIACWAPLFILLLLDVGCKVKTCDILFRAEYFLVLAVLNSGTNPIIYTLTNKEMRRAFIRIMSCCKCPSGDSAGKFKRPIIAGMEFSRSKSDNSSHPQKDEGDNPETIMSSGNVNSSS
Type: biochemical
In short: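 Membranes from CHO Flp-In cells stably overexpressing N-terminally FLAG-tagged human Edg-1 were used in a scintillation-proximity GTP-γ-S binding assay to measure receptor activation by compounds.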
An activation at 10 µM of 98% was found for `CCCOc1nc(Oc2cccc(OC)c2)nc2oc(-c3cccc(C)c3)nc12` [Example 118, 5-(3-methoxy-phenoxy)-7-propoxy-2-(3-methyl-phenyl)-oxazolo[5,4-d]pyrimidine] in this work. An activation at 10 µM of 116% was found for `CCCOc1nc(Oc2ccc(Cl)cc2Cl)nc2oc(-c3cccc(C)c3)nc12` [Example 119, 5-(2,4-dichloro-phenoxy)-7-propoxy-2-(3-methyl-phenyl)-oxazolo[5,4-d]pyrimidine] in this work. An activation at 10 µM of 86% was found for `CCCOc1nc(Oc2cc(Cl)ccc2Cl)nc2oc(-c3cccc(C)c3)nc12` [Example 120, 5-(2,5-dichloro-phenoxy)-7-propoxy-2-(3-methyl-phenyl)-oxazolo[5,4-d]pyrimidine] in this work. An activation at 10 µM of 113% was found for `CCCOc1nc(Oc2cccc(Cl)c2)nc2oc(-c3cccc(C)c3)nc12` [Example 121, 5-(3-chloro-phenoxy)-7-propoxy-2-(3-methyl-phenyl)-oxazolo[5,4-d]pyrimidine] in this work. An activation at 10 µM of 65% was found for `CCCOc1nc(Oc2ccc(CC)cc2)nc2oc(-c3cccc(C)c3)nc12` [Example 122, 5-(4-ethyl-phenoxy)-7-propoxy-2-(3-methyl-phenyl)-oxazolo[5,4-d]pyrimidine] in this work. An activation at 10 µM of 65% was found for `CCCOc1nc(Oc2cc(C)cc(C)c2C)nc2oc(-c3cccc(C)c3)nc12` [Example 123, 7-propoxy-2-(3-methyl-phenyl)-5-(2,3,5-trimethyl-phenoxy)-oxazolo[5,4-d]pyrimidine] in this work. An activation at 10 µM of 112% was found for `CCCOc1nc(Oc2ccccc2C(C)C)nc2oc(-c3cccc(C)c3)nc12` [Example 124, 5-(2-isopropyl-phenoxy)-7-propoxy-2-(3-methyl-phenyl)-oxazolo[5,4-d]pyrimidine] in this work. An activation at 10 µM of 61% was found for `CCCOc1nc(Oc2cccc(C(C)(C)C)c2)nc2oc(-c3cccc(C)c3)nc12` [Example 125, 5-(3-tert-butyl-phenoxy)-7-propoxy-2-(3-methyl-phenyl)-oxazolo[5,4-d]pyrimidine] in this work. An activation at 10 µM of 121% was found for `CCCOc1nc(Oc2ccccc2CCC)nc2oc(-c3cccc(C)c3)nc12` [Example 126, 7-propoxy-5-(2-propyl-phenoxy)-2-(3-methyl-phenyl)-oxazolo[5,4-d]pyrimidine] in this work. An activation at 10 µM of 110% was found for `CCCOc1nc(Oc2cc(F)cc(F)c2)nc2oc(-c3cccc(C)c3)nc12` [Example 127, 5-(3,5-difluoro-phenoxy)-7-propoxy-2-(3-methyl-phenyl)-oxazolo[5,4-d]pyrimidine] in this work. An activation at 10 µM of 105% was found for `CCCOc1nc(Oc2ccccc2C#N)nc2oc(-c3cccc(C)c3)nc12` [Example 128, 2-(7-propoxy-2-(3-methyl-phenyl)-oxazolo[5,4-d]pyrimidin-5-yloxy)-benzonitrile] in this work. An activation at 10 µM of 85% was found for `CCCOc1nc(Oc2ccc(F)c(C(F)(F)F)c2)nc2oc(-c3cccc(C)c3)nc12` [Example 129, 5-(4-fluoro-3-trifluoromethyl-phenoxy)-7-propoxy-2-(3-methyl-phenyl)-oxazolo[5,4-d]pyrimidine] in this work. An activation at 10 µM of 107% was found for `CCCOc1nc(Oc2ccc(F)c(C)c2)nc2oc(-c3cccc(C)c3)nc12` [Example 130, 5-(4-fluoro-3-methyl-phenoxy)-7-propoxy-2-(3-methyl-phenyl)-oxazolo[5,4-d]pyrimidine] in this work. An activation at 10 µM of 51% was found for `CCCOc1nc(Oc2cccc(N(C)C)c2)nc2oc(-c3cccc(C)c3)nc12` [Example 131, dimethyl-[3-(7-propoxy-2-(3-methyl-phenyl)-oxazolo[5,4-d]pyrimidin-5-yloxy)-phenyl]-amine] in this work. An activation at 10 µM of 129% was found for `CCCOc1nc(Oc2c(C)cccc2C)nc2oc(-c3cccc(C)c3)nc12` [Example 132, 5-(2,6-dimethyl-phenoxy)-7-propoxy-2-(3-methyl-phenyl)-oxazolo[5,4-d]pyrimidine] in this work. An activation at 10 µM of 92% was found for `CCCOc1nc(Oc2cc(C)ccc2C)nc2oc(-c3cccc(C)c3)nc12` [Example 133, 5-(2,5-dimethyl-phenoxy)-7-propoxy-2-(3-methyl-phenyl)-oxazolo[5,4-d]pyrimidine] in this work.

Source: patent US8785439B2, “2,5,7-substituted oxazolopyrimidine derivatives” (Sanofi, priority 2010, dated 2014)
